Consider 16 compounds from patent US20260138957A1, “UREA-LINKED 2-AMINOIMIDAZOLE DIMER POTENTIATORS” (UNIVERSITY OF NOTRE DAME DU LAC, priority 2022, published 2026).

For data set [1], the system named is A. baumannii strain 5075 (AB5075). Put plainly: Standalone MIC against AB5075 (compound or antibiotic alone). Format: cell-based, Acinetobacter baumannii. Set-up: MIC against AB5075 (inherent anti-bacterial activity): unit not given beside the values. The note with it: compound alone; for MIC against AB5075 (inherent anti-bacterial activity): newly synthesized material; for MIC: Acinetobacter baumannii, AB5075. An excerpt:
Dimers were first analyzed for standalone toxicity against AB5075.

In data set [2] the test system is AB5075. Nature of the data set: Potentiation of azithromycin, erythromycin and rifampin against AB5075. Format: cell-based, Acinetobacter baumannii. To be noted: AB5075, adjuvant at ≤30% their MIC.
The test system of data set [3] is AB 5075. Nature of the data set: Colistin MIC in absence or presence of compounds against AB 5075. Format: cell-based, Acinetobacter baumannii. The note with it: adjuvant at 30 μM, AB5075. An excerpt:
However, dropping LOS comes with fitness costs such as reduced growth rates, lower virulence, and increased sensitivity towards certain antibiotics.

For data set [4], the system named is A. baumannii strain 5075 (AB5075). Nature of the data set: Clarithromycin potentiation against AB5075 (CLR MIC in presence of adjuvant). Format: cell-based, Acinetobacter baumannii. The note with it: for Clarithromycin (CLR) MIC / Fold Reduction of CLR MIC: AB5075; for CLR potentiation activity (in words): AB5075, 30 μM.
Data set [5] can be described thus: Microsomal (metabolic) stability. Format: in vitro ADME. The note with it: 60 minutes.
Data set [6] in a line: Plasma stability. Format: in vitro ADME. The note with it: 4 hours.

With `Nc1nc(-c2ccc(NC(=O)Nc3ccc(-c4c[nH]c(N)n4)cc3)cc2)c[nH]1` [Compound 3], the “MIC against AB5075 (inherent anti-bacterial activity)” value (shortened to “MIC against AB5075”) in data set [1] is greater than 200. The “activity in combination with AZM, ERM and RIF (in words)” value (from here on “activity in combination with AZM”) in data set [2] is recorded as “significant activity”. For the same compound, the “Colistin MIC” value in data set [3] was 2 µg/mL. Moreover, the “Clarithromycin (CLR) MIC” value stood at 8 µg/mL in data set [4] (adjuvant at 7.5 μM), 4 µg/mL in data set [4] (adjuvant at 10 μM), 0.5 µg/mL in data set [4] (adjuvant at 20 μM) and 0.125 µg/mL in data set [4] (adjuvant at 30 μM). The “Fold Reduction of CLR MIC” value in data set [4] (adjuvant at 7.5 μM) came to 4 fold; in data set [4] (adjuvant at 10 μM), 8 fold; in data set [4] (adjuvant at 20 μM), 64 fold; in data set [4] (adjuvant at 30 μM), 256 fold.
In data set [1] (value in brackets), `Nc1nc(-c2ccc(NC(=O)Nc3cccc(-c4c[nH]c(N)n4)c3)cc2)c[nH]1` [Compound 4] showed an MIC greater than 447 µg/mL. For the same compound, the “MIC against AB5075” value in data set [1] is recorded as greater than 200. Besides, in data set [2], the “activity in combination with AZM” value is reported as “significant activity”. The “Colistin MIC” value in data set [3] is 0.25 µg/mL. Further, the “Clarithromycin (CLR) MIC” value in data set [4] (adjuvant at 10 μM) stood at 16 µg/mL; in data set [4] (adjuvant at 20 μM), 1 µg/mL; in data set [4] (adjuvant at 30 μM), 0.125 µg/mL. The “Fold Reduction of CLR MIC” value in data set [4] (adjuvant at 10 μM) is 2 fold; in data set [4] (adjuvant at 20 μM), 32 fold; in data set [4] (adjuvant at 30 μM) it was 256 fold.
In the case of `Nc1nc(-c2cccc(NC(=O)Nc3cccc(-c4c[nH]c(N)n4)c3)c2)c[nH]1` [Compound 5], the “microsomal stability (in words)” value in data set [5] is reported as “steady concentration over 60 minutes”. The compound also had an MIC in data set [1] (value in brackets) of 447 µg/mL. Further, the “MIC against AB5075” value in data set [1] was found to be 200. Further, in data set [6], the “plasma stability (in words)” value is given as “steady concentration over 4 hours”. Besides, in data set [2], the “activity in combination with AZM” value is given as “significant activity”. For the same compound, in data set [3], the “Colistin MIC” value was 2 µg/mL. The “Clarithromycin (CLR) MIC” value turned out to be 4 µg/mL in data set [4] (adjuvant at 5 μM); 1 µg/mL in data set [4] (adjuvant at 7.5 μM); 0.5 µg/mL in data set [4] (adjuvant at 10 μM); 0.0625 µg/mL in data set [4] (adjuvant at 20 μM); 0.03125 µg/mL in data set [4] (adjuvant at 30 μM). Moreover, the “Fold Reduction of CLR MIC” value in data set [4] (adjuvant at 5 μM) came to 8 fold; in data set [4] (adjuvant at 7.5 μM), 32 fold; in data set [4] (adjuvant at 10 μM), 64 fold; in data set [4] (adjuvant at 20 μM), 512 fold; in data set [4] (adjuvant at 30 μM), 1024 fold.
On to `Nc1nc(-c2cc(NC(=O)Nc3ccc(F)c(-c4c[nH]c(N)n4)c3)ccc2F)c[nH]1` [Compound 9b], for which, in data set [1], the MIC was greater than 200 µM. Also, the “Clarithromycin (CLR) MIC” value in data set [4] (adjuvant at 5 μM) came to 2 µg/mL; in data set [4] (adjuvant at 7.5 μM), 1 µg/mL; in data set [4] (adjuvant at 10 μM) it was 0.5 µg/mL; in data set [4] (adjuvant at 20 μM), 0.25 µg/mL; in data set [4] (adjuvant at 30 μM) it was 0.125 µg/mL. The “Fold Reduction of CLR MIC” value in data set [4] (adjuvant at 5 μM) is recorded as 16 fold; in data set [4] (adjuvant at 7.5 μM) it was 32 fold; in data set [4] (adjuvant at 10 μM), 64 fold; in data set [4] (adjuvant at 20 μM) it was 128 fold; in data set [4] (adjuvant at 30 μM), 256 fold.
`Nc1nc(-c2ccc(NC(=O)Nc3ccc(-c4c[nH]c(N)n4)c(C(F)(F)F)c3)cc2C(F)(F)F)c[nH]1` [Compound 9c]: the MIC in data set [1] was greater than 200 µM. Moreover, the “CLR potentiation activity (in words)” value in data set [4] is “abolished all activity”. Further, in data set [4] (adjuvant at 30 μM), the “Clarithromycin (CLR) MIC” value was 2 µg/mL and the “Fold Reduction of CLR MIC” value amounted to 16 fold.
Taken in the same sequence, the figures for `COc1cc(-c2c[nH]c(N)n2)ccc1NC(=O)Nc1ccc(-c2c[nH]c(N)n2)cc1OC` [Compound 9d] were 200 µM, “abolished all activity”, 8 µg/mL and 4 fold.
With `Nc1nc(-c2ccc(F)c(NC(=O)Nc3cc(-c4c[nH]c(N)n4)ccc3F)c2)c[nH]1` [Compound 9e], the MIC in data set [1] was greater than 200 µM. Further, in data set [4] (adjuvant at 30 μM), the “Clarithromycin (CLR) MIC” value turned out to be 32 µg/mL and the “Fold Reduction of CLR MIC” value is listed as 1 fold.
For `Nc1nc(-c2cccc(NC(=O)Nc3cccc(-c4c[nH]c(N)n4)c3F)c2F)c[nH]1` [Compound 9f], the MIC in data set [1] was greater than 200 µM. Further, the “Clarithromycin (CLR) MIC” value in data set [4] (adjuvant at 7.5 μM) came out at 2 µg/mL; in data set [4] (adjuvant at 10 μM) it was 1 µg/mL; in data set [4] (adjuvant at 20 μM) it was 0.5 µg/mL; in data set [4] (adjuvant at 30 μM), 0.25 µg/mL. Also, the “Fold Reduction of CLR MIC” value turned out to be 16 fold in data set [4] (adjuvant at 7.5 μM), 32 fold in data set [4] (adjuvant at 10 μM), 64 fold in data set [4] (adjuvant at 20 μM) and 128 fold in data set [4] (adjuvant at 30 μM).
In data set [1], `Nc1nc(-c2ccc(NC(=O)Nc3ccc(F)c(-c4c[nH]c(N)n4)c3)cc2F)c[nH]1` [Compound 9h] had an MIC greater than 200 µM. Further, the “Clarithromycin (CLR) MIC” value in data set [4] (adjuvant at 20 μM) came to 4 µg/mL; in data set [4] (adjuvant at 30 μM), 0.5 µg/mL. Moreover, the “Fold Reduction of CLR MIC” value in data set [4] (adjuvant at 20 μM) was found to be 8 fold; in data set [4] (adjuvant at 30 μM), 64 fold.
In data set [1], `Nc1nc(-c2ccc(F)c(NC(=O)Nc3ccc(-c4c[nH]c(N)n4)c(F)c3)c2)c[nH]1` [Compound 9i] registered an MIC greater than 200 µM. In data set [4] (adjuvant at 30 μM), the “Clarithromycin (CLR) MIC” value was found to be 8 µg/mL and the “Fold Reduction of CLR MIC” value was 4 fold.
On to `Nc1nc(-c2cc(F)cc(NC(=O)Nc3ccc(-c4c[nH]c(N)n4)c(F)c3)c2)c[nH]1` [Compound 9j], for which, in data set [1], the MIC is greater than 200 µM. In addition, the “Clarithromycin (CLR) MIC” value in data set [4] (adjuvant at 5 μM) was 1 µg/mL; in data set [4] (adjuvant at 7.5 μM), 0.25 µg/mL; in data set [4] (adjuvant at 10 μM), 0.125 µg/mL; in data set [4] (adjuvant at 20 μM), 0.125 µg/mL; in data set [4] (adjuvant at 30 μM), 0.0625 µg/mL. Further, the “Fold Reduction of CLR MIC” value in data set [4] (adjuvant at 5 μM) was found to be 32 fold; in data set [4] (adjuvant at 7.5 μM), 128 fold; in data set [4] (adjuvant at 10 μM) it was 256 fold; in data set [4] (adjuvant at 20 μM) it was 256 fold; in data set [4] (adjuvant at 30 μM), 512 fold.
`Nc1nc(-c2cccc(NC(=O)Nc3cc(F)cc(-c4c[nH]c(N)n4)c3)c2)c[nH]1` [Compound 9l]: in data set [1], the MIC is greater than 200 µM. Further, the “Clarithromycin (CLR) MIC” value worked out at 1 µg/mL in data set [4] (adjuvant at 7.5 μM), 0.5 µg/mL in data set [4] (adjuvant at 10 μM), 0.0625 µg/mL in data set [4] (adjuvant at 20 μM) and 0.0625 µg/mL in data set [4] (adjuvant at 30 μM). Moreover, the “Fold Reduction of CLR MIC” value in data set [4] (adjuvant at 7.5 μM) is listed as 32 fold; in data set [4] (adjuvant at 10 μM), 64 fold; in data set [4] (adjuvant at 20 μM) it was 512 fold; in data set [4] (adjuvant at 30 μM), 512 fold.
In the case of `Nc1nc(-c2ccc(NC(=O)Nc3ccc(-c4c[nH]c(N)n4)c(F)c3)cc2)c[nH]1` [Compound 9m], the MIC in data set [1] is greater than 200 µM. The “Clarithromycin (CLR) MIC” value in data set [4] (adjuvant at 7.5 μM) is 2 µg/mL; in data set [4] (adjuvant at 10 μM), 1 µg/mL; in data set [4] (adjuvant at 20 μM), 0.5 µg/mL; in data set [4] (adjuvant at 30 μM), 0.0625 µg/mL. In addition, the “Fold Reduction of CLR MIC” value in data set [4] (adjuvant at 7.5 μM) is 16 fold; in data set [4] (adjuvant at 10 μM) it was 32 fold; in data set [4] (adjuvant at 20 μM) it was 64 fold; in data set [4] (adjuvant at 30 μM), 512 fold.
In data set [1], `Nc1nc(-c2ccc(NC(=O)Nc3ccc(-c4c[nH]c(N)n4)cc3F)c(F)c2)c[nH]1` [Compound 14a] gave an MIC greater than 200 µM. Further, in data set [4] (adjuvant at 30 μM), the “Clarithromycin (CLR) MIC” value is 4 µg/mL and the “Fold Reduction of CLR MIC” value was 8 fold.
`Nc1nc(-c2ccc(NC(=O)Nc3ccc(-c4c[nH]c(N)n4)c(Cl)c3)cc2Cl)c[nH]1` [Compound 14b]: in data set [1], the MIC was greater than 200 µM. For the same compound, the “CLR potentiation activity (in words)” value in data set [4] is “abolished all activity”. In addition, in data set [4] (adjuvant at 30 μM), the “Clarithromycin (CLR) MIC” value stood at 32 µg/mL and the “Fold Reduction of CLR MIC” value stood at 1 fold.
Taken in the same sequence, the figures for `Cc1cc(-c2c[nH]c(N)n2)ccc1NC(=O)Nc1ccc(-c2c[nH]c(N)n2)cc1C` [Compound 14c] were greater than 200 µM, “abolished all activity”, 32 µg/mL and 1 fold.

One may read the MIC as the lowest concentration that inhibits growth of the organism.
